Patent publication US7582447B2, “DNA encoding a testicular carnitine transporter” (Human Cell Systems, Inc., priority 2001, dated 2009)

T1: CT2 (Homo sapiens, UniProt Q86VW1)
T1 construct: a cRNA (RNA complementary to cDNA) was prepared in vitro from a plasmid containing the CT2cDNA; expressed in transfected cells; host or cells: Xenopus laevis oocytes injected with CT2 cRNA
T1 sequence (Q86VW1 1-543 isoform Q86VW1-2): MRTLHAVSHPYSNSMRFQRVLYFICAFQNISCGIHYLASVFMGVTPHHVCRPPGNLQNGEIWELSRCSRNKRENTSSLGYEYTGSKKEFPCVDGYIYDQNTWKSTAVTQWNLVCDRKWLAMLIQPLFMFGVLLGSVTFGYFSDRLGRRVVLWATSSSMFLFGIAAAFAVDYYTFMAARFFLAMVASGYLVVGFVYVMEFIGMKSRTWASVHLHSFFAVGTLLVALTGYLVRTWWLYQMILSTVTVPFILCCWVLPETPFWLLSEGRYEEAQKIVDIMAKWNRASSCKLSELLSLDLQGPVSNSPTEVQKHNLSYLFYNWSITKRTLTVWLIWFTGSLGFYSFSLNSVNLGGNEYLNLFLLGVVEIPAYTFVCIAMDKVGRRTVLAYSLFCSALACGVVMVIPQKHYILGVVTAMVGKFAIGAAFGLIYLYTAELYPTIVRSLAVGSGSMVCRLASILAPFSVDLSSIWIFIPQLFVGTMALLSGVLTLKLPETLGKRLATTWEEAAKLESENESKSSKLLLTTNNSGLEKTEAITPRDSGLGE

B1: CT2 (Homo sapiens) (protein)
chain: T1 sequence (Q86VW1 1-543 isoform Q86VW1-2)
notes: a cRNA (RNA complementary to cDNA) was prepared in vitro from a plasmid containing the CT2cDNA; expressed in transfected cells; host or cells: Xenopus laevis oocytes injected with CT2 cRNA

Assays:
Format in all cases: cell-based
CT2 [1] = biological target: T1, CT2; test: inhibition experiment: ^3H-carnitine uptake by oocytes injected with CT2 cRNA in the presence of unlabelled compounds; details: for inhibition of ^3H-carnitine transport by CT2: 50 nM ^3H-carnitine, 5 μM or 50 μM unlabelled compound, FIG. 4
Protocol: (§1) The thus-obtained cRNA was injected into oocytes of a platanna in accordance with the already reported method (Sekine, T. et al., J. Biol. Chem., Vol. 272, pp. 18526-18529, 1997), and an uptake experiment by radioactive labeled L-carnitine was conducted on the oocytes.
(3) An influence to be exerted by D-Carnitine, which is an isomer of L-carnitine, on the L-carnitine transport by CT2 was studied.
(6) In order to study further on the substrate selectivity of CT2, in the ^3H-carnitine uptake experiment system by oocytes into which CT2cRNA was injected, various carnitine analogs were added to the system and its influences were investigated (inhibition experiment).
The ^3H-carnitine uptake experiment was performed in accordance with the above-described method using oocytes into which CT2cRNA was injected. 50 nM ^3H-carnitine uptake was measured in the presence or absence of 5 μM or 50 μM of various compounds (unlabelled).

CT2 [2] = biological target: T1, CT2; test: uptake experiment of radioactive labeled substrates by oocytes injected with human CT2 cRNA; details: platanna oocytes injected with CT2 cRNA; FIG. 1A
Protocol: It is possible to confirm the ability to transport (uptake) carnitine into a cell by expressing a cRNA prepared from the obtained CT2cDNA by introducing the cRNA into an oocyte and measuring a substrate uptake into the cell employing an ordinary uptake experiment (Sekine, T et al., Biochem. Biophis. Res. Commun., Vol. 251, pp. 586-591, 1998) wherein carnitine is used as a substrate.
Next, a cRNA (RNA complementary to cDNA) was prepared in vitro from a plasmid containing the CT2cDNA by using a T7RNA polymerase (see Sekine, T., et al., J. Biol. Chem., Vol. 272, pp. 18526-18529, 1997).
as §1
A concentration dependence of the carnitine transport by CT2 was studied through an investigation of changes in amounts of uptake of various concentration carnitines by CT2. The uptake experiment of radioactive labeled carnitines was performed by using oocytes into which the CT2cRNA was injected and in accordance with the above-described method.

[3] = substrate: C[N+](C)(C)C[C@H](O)CC(=O)[O-]; test: as above; details: other: Michaelis-Menten kinetics, oocytes injected with CT2cRNA; FIG. 2A

| Molecule | inhibition of ^3H-carnitine transport by CT2 (CT2 [1]) | uptake of radioactive labeled substrate by oocytes which expressed the CT2 (CT2 [2]) | other results |
| --- | --- | --- | --- |
| CCCCCCCC(=O)O[C@H](CC(=O)[O-])C[N+](C)(C)C [octanoyl L-carnitine] | significantly inhibited | – | – |
| Nc1ccc(C(=O)NCC(=O)O)cc1 [paraamino hippuric acid] | did not show inhibition effect | not observed | – |
| CC[N+](CC)(CC)CC [tetraethylammnonium, tetraethyl ammonium] | did not show inhibition effect | not observed | – |
| C[N+](C)(C)C[C@@H](O)CC(=O)[O-] [D-carnitine] | significantly inhibited | – | inhibition of the L-carnitine transport by CT2 (concentration dependence) (CT2 [1]; oocytes injected with CT2 cRNA, FIG. 2B): inhibited the L-carnitine transport by CT2 in a concentration dependent manner; Ki (CT2 [1]; oocytes injected with CT2 cRNA, FIG. 2B, read-out: Ki value, inhibition of the L-carnitine transport by CT2): ~30.1 µM |
| CC(=O)OC(CC(=O)[O-])C[N+](C)(C)C (racemic) [acetyl DL-carnitine] | significantly inhibited | – | – |
| C[N+](C)(C)CC(=O)O [betaine] | significantly inhibited | – | – |
| CC(=O)O[C@H](CC(=O)[O-])C[N+](C)(C)C [acetyl L-carnitine] | significantly inhibited | – | – |
| C[N+](C)(C)C[C@H](O)CC(=O)[O-] [L-carnitine] | – | exhibit ^3H-L-carnitine uptake | – |
| B1 | – | – | Km [3]: 20.3 µM |
